Measured values taken from patent US20250388565A1, “ESTROGEN RECEPTOR ALPHA DEGRADERS AND METHODS OF USE THEREOF” (Relay Therapeutics, Inc., priority 2022, published 2025).

molecular target: T1, ERα protein (HiBiT-tagged) in ESR1_HiBiT KI MCF7 cells (Homo sapiens, UniProt P03372); assay: Nano Glo HiBiT Lytic Degradation Assay; assay type: cell-based; details: 6 hours with compound, 14-point dose response 1:3, bell-shape curve fit, half-maximal effect of first Hill model, read-out: MCF7 ESR1 HiBiT - (DC50)
T1 sequence (P03372 1-595): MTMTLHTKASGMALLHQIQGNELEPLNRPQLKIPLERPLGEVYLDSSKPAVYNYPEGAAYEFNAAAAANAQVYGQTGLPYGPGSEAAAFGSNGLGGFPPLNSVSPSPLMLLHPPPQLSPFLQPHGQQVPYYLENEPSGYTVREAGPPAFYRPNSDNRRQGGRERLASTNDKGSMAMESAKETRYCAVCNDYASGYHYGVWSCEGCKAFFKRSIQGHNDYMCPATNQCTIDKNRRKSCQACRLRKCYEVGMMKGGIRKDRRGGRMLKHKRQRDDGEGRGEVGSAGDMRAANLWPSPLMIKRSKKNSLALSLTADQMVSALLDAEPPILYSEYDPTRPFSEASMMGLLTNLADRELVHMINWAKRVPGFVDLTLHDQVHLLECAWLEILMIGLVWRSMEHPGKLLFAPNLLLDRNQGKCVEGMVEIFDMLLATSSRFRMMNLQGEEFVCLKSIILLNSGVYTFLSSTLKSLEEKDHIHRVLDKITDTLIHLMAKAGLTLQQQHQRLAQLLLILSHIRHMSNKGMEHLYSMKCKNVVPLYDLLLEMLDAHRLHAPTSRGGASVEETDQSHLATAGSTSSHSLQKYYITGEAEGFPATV
Outline: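 ESR1_HiBiT knock-in MCF7 cells were seeded 24 h before treatment, then exposed to compounds for 6 h at 37° C (14-point 1:3 curves, 10 mM top stock, 0.1% DMSO final, duplicates). HiBiT-ERα was read by lytic LgBiT luminescence, background-subtracted and normalized to DMSO. DC50 was taken from the half-maximal point of the first Hill component of a bell-shaped fit.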

| DC50 [nM] | Compound |
| --- | --- |
| 1400 | O=C1CC[C@H](N2Cc3cc(N4CCN(CC5CCN(c6ccc([C@@H]7c8ccc(O)cc8CC[C@@H]7c7cccc(OC(F)(F)F)c7)cc6)CC5)CC4)ccc3C2=O)C(=O)N1 (single isomer, unassigned) [Compound I-109] |
| 0.3 | O=C1CC[C@H](N2Cc3cc(N4CCN(CC5CCN(c6ccc([C@@H]7c8ccc(O)cc8C(F)(F)C[C@@H]7c7ccccc7)cn6)CC5)CC4)ccc3C2=O)C(=O)N1 [Compound I-202, (3S)-3-[5-[4-[[1-[5-[(1S,2S)-4,4-difluoro-6-hydroxy-2-phenyl-tetralin-1-yl]-2-pyridyl]-4-piperidyl]methyl]piperazin-1-yl]-1-oxo-isoindolin-2-yl]piperidine-2,6-dione] |
| 18 | C[C@H]1Cc2cc(O)ccc2[C@@H](c2ccc(N3CCC(CN4CCN(c5ccc6c(c5)CN([C@H]5CCC(=O)NC5=O)C6=O)CC4)CC3)cc2)[C@H]1c1ccccc1 [Compound I-174, (S)-3-(5-(4-((1-(4-((1R,2S,3S)-6-hydroxy-3-methyl-2-phenyl-1,2,3,4-tetrahydronaphthalen-1-yl)phenyl)piperidin-4-yl)methyl)piperazin-1-yl)-1-oxoisoindolin-2-yl)piperidine-2,6-dione] |
| 80 | O=C1CC[C@H](N2Cc3cc(N4CCN(CC5CCN(c6ccc([C@@H]7c8ccc(O)cc8CO[C@@H]7c7ccc(C(F)(F)F)cc7)cc6)CC5)CC4)ccc3C2=O)C(=O)N1 (single isomer, unassigned) [Compound I-36] |
| 0.07 | O=C1CC[C@H](N2Cc3cc(N4CCN(CC5CCN(c6ccc([C@@H]7c8ccc(O)cc8CC[C@@H]7c7cccc(O)c7)cc6)CC5)CC4)ccc3C2=O)C(=O)N1 [Compound I-126, (3S)-3-[5-[4-[[1-[4-[(1R,2S)-6-hydroxy-2-(3-hydroxyphenyl)tetralin-1-yl]phenyl]-4-piperidyl]methyl]piperazin-1-yl]-1-oxo-isoindolin-2-yl]piperidine-2,6-dione] |
| 2 | O=C1CC[C@H](N2Cc3cc(N4CCN(CC5CCN(c6ccc([C@H]7c8ccc(O)cc8CO[C@H]7c7ccccc7)cc6F)CC5)CC4)ccc3C2=O)C(=O)N1 (single isomer, unassigned) [Compound I-382] |
| 0.44 | O=C1CC[C@H](N2Cc3cc(N4CCN(CC5CCN(c6ccc([C@H]7c8ccc(O)cc8CC[C@H]7C7=CCCCC7)cc6)CC5)CC4)ccc3C2=O)C(=O)N1 (single isomer, unassigned) [Compound I-416] |
| ≥ 10000 | O=C1CC[C@H](N2Cc3cc(N4CC5(CCN(CC6CCN(c7ccc([C@H]8c9ccc(O)cc9CC[C@H]8c8ccccc8)cc7)CC6)CC5)C4)ccc3C2=O)C(=O)N1 (single isomer, unassigned) [II-96] |
| ≥ 10000 | O=C1CCC(N2Cc3cc(N4CCN(CC5CCN(c6ccc([C@@H]7c8ccc(O)cc8CC[C@@H]7c7ccccc7)cc6)CC5)CC4)c(F)cc3C2=O)C(=O)N1 (single isomer, unassigned) [II-19] |
| ≥ 10000 | Cc1cc(N2CCC(CN3CCN(c4ccc5c(c4)CN([C@H]4CCC(=O)NC4=O)C5=O)CC3)CC2)cc(F)c1[C@H]1c2ccc(O)cc2CC[C@H]1C1CCCCC1 (single isomer, unassigned) [Compound I-235] |
| 0.3 | Cc1ccc([C@H]2OCc3cc(O)ccc3[C@H]2c2ccc(N3CCC(CN4CCN(c5ccc6c(c5)CN([C@H]5CCC(=O)NC5=O)C6=O)CC4)CC3)cc2)cc1 [Compound I-354, (S)-3-(5-(4-((1-(4-((3S,4R)-7-hydroxy-3-(p-tolyl)isochroman-4-yl)phenyl)piperidin-4-yl)methyl)piperazin-1-yl)-1-oxoisoindolin-2-yl)piperidine-2,6-dione] |
| ≥ 10000 | O=C1CC[C@H](N2Cc3cc(N4CCN(CC5CCN(c6ccc([C@H]7c8ccc(O)cc8C(F)(F)C[C@H]7c7ccccc7)nc6)CC5)CC4)ccc3C2=O)C(=O)N1 [Compound I-337, (S)-3-(5-(4-((1-(6-((1R,2R)-4,4-difluoro-6-hydroxy-2-phenyl-1,2,3,4-tetrahydronaphthalen-1-yl)pyridin-3-yl)piperidin-4-yl)methyl)piperazin-1-yl)-1-oxoisoindolin-2-yl)piperidine-2,6-dione] |
| 2 | C[C@H]1CN(c2ccc3c(c2)CN([C@H]2CCC(=O)NC2=O)C3=O)CCN1CC1CCN(c2ccc([C@@H]3c4ccc(O)cc4CC[C@@H]3c3ccccc3)cc2)CC1 (single isomer, unassigned) [II-1] |
| ≥ 10000 | C[C@@H]1CN(c2ccc3c(c2)CN([C@H]2CCC(=O)NC2=O)C3=O)CCN1CC1CCN(c2ccc([C@H]3c4ccc(O)cc4CC[C@H]3c3ccccc3)cc2)CC1 (single isomer, unassigned) [II-15] |
| 3.91 | O=C1CCC(N2Cc3cc([C@H]4CCN(CC5CCN(c6ccc([C@@H]7c8ccc(O)cc8CC[C@@H]7c7ccccc7)cc6)CC5)C[C@@H]4O)ccc3C2=O)C(=O)N1 (single isomer, unassigned) [II-107] |
| 13 | O=C1CC[C@H](N2Cc3cc(N4CCN(CC5CCN(c6ccc([C@H]7c8ccc(O)cc8C(F)(F)C[C@H]7c7ccccc7)cc6)CC5)CC4)ccc3C2=O)C(=O)N1 [Compound I-13] |
| 5.74 | O=C1CC[C@@H](N2Cc3cc(N4CCN(CC5CCN(c6ccc([C@@H]7c8ccc(O)cc8C(F)(F)C[C@@H]7c7ccc(F)cc7)cc6)CC5)CC4)ccc3C2=O)C(=O)N1 [Compound I-310, (R)-3-(5-(4-((1-(4-((1R,2S)-4,4-difluoro-2-(4-fluorophenyl)-6-hydroxy-1,2,3,4-tetrahydronaphthalen-1-yl)phenyl)piperidin-4-yl)methyl)piperazin-1-yl)-1-oxoisoindolin-2-yl)piperidine-2,6-dione] |
| ≥ 10000 | Cc1cc(N2CCC(CN3CCN(c4ccc5c(c4)CN([C@H]4CCC(=O)NC4=O)C5=O)CC3)CC2)ccc1[C@H]1c2ccc(O)cc2CC[C@H]1C1CCCCC1 [Compound I-140, (S)-3-(5-(4-((1-(4-((1S,2S)-2-cyclohexyl-6-hydroxy-1,2,3,4-tetrahydronaphthalen-1-yl)-3-methylphenyl)piperidin-4-yl)methyl)piperazin-1-yl)-1-oxoisoindolin-2-yl)piperidine-2,6-dione] |
| 0.16 | Cn1c(=O)n([C@H]2CCC(=O)NC2=O)c2ccc(N3CCN(CC4CCN(c5ccc([C@@H]6c7ccc(O)cc7CO[C@@H]6c6ccccc6)cc5)CC4)CC3)cc21 (single isomer, unassigned) [Compound I-387] |
| 0.62 | Cc1cc(F)cc([C@H]2OCc3cc(O)ccc3[C@H]2c2ccc(N3CCC(CN4CCN(c5ccc6c(c5)CN([C@H]5CCC(=O)NC5=O)C6=O)CC4)CC3)cc2)c1 [Compound I-377, (S)-3-(5-(4-((1-(4-((3S,4R)-3-(3-fluoro-5-methylphenyl)-7-hydroxyisochroman-4-yl)phenyl)piperidin-4-yl)methyl)piperazin-1-yl)-1-oxoisoindolin-2-yl)piperidine-2,6-dione] |
| 0.79 | O=C1CC[C@H](N2Cc3cc(N4CCN(CCC5CCN(c6ccc([C@@H]7c8ccc(O)cc8CC[C@@H]7c7ccccc7)cc6)CC5)CC4)ccc3C2=O)C(=O)N1 [II-97] |
| 2 | O=C1CC[C@H](N2Cc3cc(N4CCN(C[C@@H]5CCN(c6ccc([C@H]7c8ccc(O)cc8CC[C@H]7c7ccccc7)cc6)C5)CC4)ccc3C2=O)C(=O)N1 (single isomer, unassigned) [II-33] |
| 25 | COc1cc(N2CCC(CN3CCN(c4ccc5c(c4)CN([C@H]4CCC(=O)NC4=O)C5=O)CC3)CC2)c(-c2ccccc2)cc1[C@H]1CCC(F)(F)c2cc(O)ccc21 [Compound I-406] |
